The Kd is the concentration at which binding is half-saturated.

Each structure is given as a SMILES string. Active and inactive are the calls of the source. The rule behind the calls is not given here. A value given as a limit tells only on which side of the number the result lay.

This is an account of results in PubChem BioAssay AID1549 (Sanford-Burnham Center for Chemical Genomics, 2009).

This test concerns the target Influenza A virus M2 proton channel (A/TW/4845/1999 H1N1). Briefly: NMR binding screen, influenza A virus M2 proton channel, Kd (AID 1549). As to conditions: M2 protein.
In the case of `O=C(Nc1nnc(-c2ccncc2)o1)c1cccs1`, the Kd is > 4 mM (inactive).
For `OCc1ccc(Oc2ccccc2)nc1`, the Kd was > 4 mM (inactive).
Consider `O=C1COc2ccccc2C(=O)N1`, for which the Kd was > 4 mM (inactive).
As to `COc1cccc(C(=O)Nc2c(C)n[nH]c2C)c1`, the Kd was > 4 mM (inactive).
For the compound `C=CC(C1=CC(=O)C=CC1=O)c1ccccc1` (stereo not given), the Kd was > 4 mM (inactive).
As for `CC(=O)c1ccc(CC2SC(N)=NC2=O)cc1` (stereo not given), the figure is > 4 mM (inactive).
Regarding `Oc1ccc(C2SCCS2)cc1`, the Kd was > 4 mM (inactive).
Regarding `Cc1nc(-c2ccc(C(=O)O)s2)cs1`, the Kd was > 4 mM (inactive).
On to `CC(=O)O[C@H]1CC[C@@]2(C)C(CC[C@]3(C)C2C(=O)C=C2C4[C@@H](C)[C@H](C)CC[C@]4(C(=O)O)CC[C@]23C)C1(C)C` (stereo not given in full), for which the Kd was > 4 mM (inactive).
For `C[C@H](CCC(=O)O)[C@H]1CCC2C3C(CC[C@@]21C)[C@@]1(C)CC[C@@H](O)C[C@H]1C[C@@H]3O` (stereo not given in full), the Kd is > 4 mM (inactive).
Consider `COc1ccc(C2(C)NC(=O)NC2=O)cc1` (stereo not given), for which the Kd is > 4 mM (inactive).
For `O=C(CSc1ccnc(=O)[nH]1)NCc1ccccc1`, the Kd is > 4 mM (inactive).
`c1ccc(-c2nc3ccccc3nc2-c2ccccn2)nc1`: the Kd is > 4 mM (inactive).
Take `CC(=O)Nc1ccc(Cl)c(C(N)=O)c1`: the Kd was > 4 mM (inactive).
In the case of `Cc1occc1C(=O)NC1CCN(C)CC1`, the Kd is > 4 mM (inactive).
As to `Cc1csc2nc3ccccc3c(=O)n12`, the Kd was > 4 mM (inactive).
As to `CCOC(=O)c1c(C)nc2cc(C)ccn12`, the Kd was > 4 mM (inactive).
For the compound `Cc1nnsc1C(=O)Nc1cccc(S(N)(=O)=O)c1`, the Kd is > 4 mM (inactive).
Turning to `C=CCNC(=O)c1ccc(Cl)cc1Cl`, the Kd was > 4 mM (inactive).
Turning to `Cc1ccccc1NC(=O)CC1SC(N)=NC1=O` (stereo not given), the Kd was > 4 mM (inactive).
In the case of `S=C(c1ccc(N2CCOCC2)cc1)N1CCCCC1` it was > 4 mM (inactive).
Turning to `O=C(NCc1ccccn1)c1ccccc1Cl`, the Kd was > 4 mM (inactive).
In the case of `COc1c(-c2coc3cc4c(cc3c2=O)CC(O)C(C)(C)O4)ccc2c1C=CC(C)(C)O2` (stereo not given) it was > 4 mM (inactive); in that of `COc1cccc(NC(=O)c2cccs2)c1`, > 4 mM (inactive); in that of `O=C(c1cccs1)N1CCCc2ccccc21`, > 4 mM (inactive).
Turning to `S=C(NC1CC1)NN1CCOCC1`, the Kd is > 4 mM (inactive).
As for `N#Cc1c[nH]n2c(=O)cc(Cc3ccccc3)nc12`, the figure is > 4 mM (inactive); as for `Cc1nc2ccc(C(=O)O)cc2nc1C`, > 4 mM (inactive); as for `CC(=O)c1cc(CN2C(=O)c3ccccc3C2=O)cs1`, > 4 mM (inactive).
As to `CC1CCc2cc(F)ccc2N1C(=O)c1ccc(=O)[nH]n1` (stereo not given), the Kd is > 4 mM (inactive).
As for `NC(=O)CC1NC(=O)c2ccccc21` (stereo not given), the figure is > 4 mM (inactive); as for `C=C1C2CC[C@@]3(C)[C@H](c4ccoc4)OC(=O)C[C@]13O[C@H]1CC(=O)C(C)(C)[C@H](C(O)C(=O)OC)[C@@]21C` (stereo not given in full), > 4 mM (inactive).
As to `CC(C)CCCC(C)C1CCC2C3C[C@@H](O)[C@@]4(O)C[C@@H](O)CC[C@]4(C)C3CC[C@]12C` (stereo not given in full), the Kd is > 4 mM (inactive).
In the case of `COc1ccc(C2(C)CC(=O)NC2=O)cc1` (stereo not given) it was > 4 mM (inactive); in that of `Cc1ccc(N2C(=O)C3C4C=CC(O4)C3C2=O)cc1` (stereo not given), > 4 mM (inactive).
As for `Nc1ccn(C2O[C@H](CO)[C@@H](O)[C@H]2O)c(=O)n1` (stereo not given in full), the figure is > 4 mM (inactive); as for `Cc1ccc(C)n1-c1ccc(C(=O)N2CCOCC2)cc1`, > 4 mM (inactive).
Regarding `O=C(Oc1ccc(-c2nnco2)cc1)N1CCCCC1`, the Kd is > 4 mM (inactive).
In the case of `COc1ccccc1-c1cn[nH]c(=S)n1`, the Kd is > 4 mM (inactive).
For `S=c1[nH]cnc2sccc12`, the Kd is > 4 mM (inactive).
Turning to `O=S(=O)(Cc1ccccc1Cl)Nc1ccccn1`, the Kd is > 4 mM (inactive).
With `COc1cc([C@@H]2c3cc4c(cc3[C@H](O)[C@H]3COC(=O)[C@H]23)OCO4)cc(OC)c1OC`, the Kd is > 4 mM (inactive).
For the compound `COn1c(=O)c(C)[n+]([O-])c2ccccc21`, the Kd is > 4 mM (inactive).
For the compound `CCOC(=O)c1c(C)nc2c(C#N)cnn2c1C`, the Kd was > 4 mM (inactive).
In the case of `NC(=O)c1ccc(C(N)=O)c(-c2ccccc2)c1`, the Kd is > 4 mM (inactive).
On to `CC(NC(=O)c1cccnc1)c1ccc2c(c1)OCO2` (stereo not given), for which the Kd was > 4 mM (inactive).
In the case of `CC1(C)C(=O)[C@@H]2O[C@@H]2[C@@]2(C)C1C[C@@H](O)[C@]1(C)C2CC[C@@]2(C)[C@H](c3ccoc3)OC(=O)C3OC321` (stereo not given in full) it was > 4 mM (inactive); in that of `O=c1c2c(nc3nc(Cc4ccccc4)[nH]n13)CCC2`, > 4 mM (inactive); in that of `CC(=O)Nc1ccc(-c2ccc3nncn3n2)cc1`, > 4 mM (inactive).
Take `O=c1ccc2cc(O)c(O)cc2o1`: the Kd is > 4 mM (inactive).
As for `O=C1C=CC(=O)c2c(O)cccc21`, the figure is > 4 mM (inactive); as for `Cn1c(CN2CC(c3ccccc3)CC2=O)n[nH]c1=S` (stereo not given), > 4 mM (inactive); as for `COc1ccc2nc(N)sc2c1`, > 4 mM (inactive).
Take `Brc1ccc(-c2nc(-c3ccncc3)no2)o1`: the Kd was > 4 mM (inactive).
As for `O=C(O)c1cccc(N2C(=O)C3CC=CCC3C2=O)c1` (stereo not given), the figure is > 4 mM (inactive); as for `CCCCCC1C(=O)CCC1CC(=O)OC` (stereo not given), > 4 mM (inactive).
With `CC(=O)O[C@]1(C)CC[C@@]23CC1C(C)(C)[C@@H]2CC[C@H]3C`, the Kd is > 4 mM (inactive).
As to `CN1C(=O)Cc2cc(S(N)(=O)=O)ccc21`, the Kd is > 4 mM (inactive).
As for `COc1cc([C@@H]2c3cc4c(c(O)c3C[C@H]3COC(=O)[C@@H]32)OCO4)cc(OC)c1OC`, the Kd was > 4 mM (inactive).
In the case of `CS(=O)(=O)N1CCC(C(=O)NC2CCCC2)CC1`, the Kd was > 4 mM (inactive).
On to `Nc1cccc(S(N)(=O)=O)c1`, for which the Kd was > 4 mM (inactive).
In the case of `NC(=O)c1cccc2c(=O)oc3ccccc3c12` it was > 4 mM (inactive).
Regarding `C/C=C(\C)C(=O)O[C@H]1C[C@@H](OC(C)=O)[C@@]2(C(=O)OC)CO[C@@H]3C2[C@]12CO[C@](O)(C(=O)OC)[C@H]2[C@](C)(C12O[C@@]1(C)[C@H]1C[C@@H]2OC2OC=C[C@@]21O)[C@@H]3O` (stereo not given in full), the Kd was > 4 mM (inactive).
Regarding `COc1c2c(c(CC=C(C)C)c3oc(=O)c(-c4ccc(O)cc4)c(O)c13)OC(C)(C)C=C2`, the Kd is > 4 mM (inactive).
In the case of `NCCc1cnc[nH]1`, the Kd is > 4 mM (inactive).
In the case of `CC(=O)Nc1ccc(C(=O)N2CCOCC2)cc1Cl` it was > 4 mM (inactive).
Turning to `CN(C)C(=O)CSc1cccc2cccnc12`, the Kd is > 4 mM (inactive).
Consider `O=C(NN1C(=O)CSC1=S)c1ccccc1`, for which the Kd was > 4 mM (inactive).
As for `OCCOc1ccc(C2=NCCO2)cc1`, the Kd was > 4 mM (inactive).
For `Cc1cc(=O)cc(C)n1-c1ccccc1N`, the Kd was > 4 mM (inactive).
In the case of `Cc1cc(C(=O)N2CCN(c3ncccn3)CC2)c(C)o1`, the Kd was > 4 mM (inactive).
Take `O=C1C2CCCCC2C(=O)N1c1nccs1` (stereo not given): the Kd is > 4 mM (inactive).
For `CCOC(=O)C1CCN(c2ccc(C#N)cc2)CC1`, the Kd is > 4 mM (inactive).
In the case of `CNC(=O)C(=O)Nc1ccc(F)cc1`, the Kd is > 4 mM (inactive).
For the compound `Nc1ccccc1N1CCOCC1`, the Kd was > 4 mM (inactive).
As for `Cc1oc(-c2ccccc2)nc1CCO`, the Kd was > 4 mM (inactive).
Turning to `c1ccc(-c2nsc(N3CCNCC3)n2)cc1`, the Kd was > 4 mM (inactive).
In the case of `COc1c(O)cc2c(-c3ccccc3)cc(=O)oc2c1OC`, the Kd is > 4 mM (inactive).
As for `CC(=O)c1cccc(NS(=O)(=O)N(C)C)c1`, the figure is > 4 mM (inactive); as for `O=c1c2ccccc2nc2n1CCS2`, > 4 mM (inactive).
For the compound `O=C(O)c1csc2ccccc12`, the Kd is > 4 mM (inactive).
In the case of `Cc1c(CCO)c(=O)n2c([nH]c3ccccc32)c1C#N` it was > 4 mM (inactive).
In the case of `CC(=O)c1c(C)nc2ccccc2c1N` it was > 4 mM (inactive); in that of `Nc1nnc(SCc2ccccc2Cl)s1`, > 4 mM (inactive).
Take `Cc1cc(NC(=O)c2cnn3cccnc23)no1`: the Kd was > 4 mM (inactive).
Turning to `CCCc1cc(=O)[nH]c2nnc(SCC(C)=O)n12`, the Kd was > 4 mM (inactive).
As to `Cc1nnc(N2CCN(Cc3ccccc3)CC2)[nH]c1=O`, the Kd is > 4 mM (inactive).
Consider `Nc1ccccc1OC(F)(F)F`, for which the Kd is > 4 mM (inactive).
For `CC(=O)NC(=S)Nc1ccc(C(C)=O)cc1`, the Kd was > 4 mM (inactive).
For `O=C(O)CNCC(O)Cn1c2ccccc2c2ccccc21` (stereo not given), the Kd is > 4 mM (inactive).
For `Cn1cnc2c(=S)[nH]c(=O)n(Cc3ccccc3)c21`, the Kd was > 4 mM (inactive).
For `Cn1c(NCc2ccccc2O)nc2ccccc21`, the Kd is > 4 mM (inactive).
Turning to `CC(=O)c1c(C)n(O)c2ccc3nonc3c12`, the Kd was > 4 mM (inactive).
For `COc1ccc(-c2ccc(OC)cc2C(=O)O)cc1`, the Kd was > 4 mM (inactive).
For `Cn1c2c(c(=O)n(C)c1=O)CN(Cc1ccco1)CN2`, the Kd is > 4 mM (inactive).
As for `NCCNC(=S)Nc1ccccc1`, the figure is > 4 mM (inactive).
In the case of `CC1CC[C@@]2(OC1)O[C@H]1CC3C4CC[C@@H]5C[C@@H](O)CC[C@]5(C)C4CC[C@]3(C)[C@H]1[C@@H]2C` (stereo not given in full), the Kd was > 4 mM (inactive).
With `O=C(Nc1nc2c(s1)CCCC2)c1cccnc1`, the Kd is > 4 mM (inactive).
Take `OCc1ccncc1`: the Kd was > 4 mM (inactive).
With `O=c1cc(-c2cc(O)c(O)c(O)c2)oc2cc(O)cc(O)c12`, the Kd was > 4 mM (inactive).
